Results as given in ChEMBL document CHEMBL1275542, “Characterization of TolC efflux pump proteins from Pasteurella multocida” (2008).
Values after ≈ are worked out from the molar mass of the structure shown.

Columns and labels:
Format in all cases: functional
[1] = tested on: Pasteurella multocida; test: Antibacterial activity against Pasteurella multocida pm1980 after 24 hrs by broth dilution method
[2] = tested on: Pasteurella multocida; test: Antibacterial activity against TolC deficient Pasteurella multocida pm1980 after 24 hrs by broth dilution method
[3] = tested on: Pasteurella multocida; test: Antibacterial activity against Pasteurella multocida AL435 after 24 hrs by broth dilution method
[4] = tested on: Pasteurella multocida; test: Antibacterial activity against TolC deficient Pasteurella multocida pm0527 after 24 hrs by broth dilution method
[5] = tested on: Pasteurella multocida; test: Ratio of MIC for Pasteurella multocida AL435 to MIC for TolC deficient Pasteurella multocida pm0527
[6] = tested on: Pasteurella multocida; test: Ratio of MIC for Pasteurella multocida AL435 to MIC for TolC deficient Pasteurella multocida pm1980
[7] = tested on: Pasteurella multocida; test: Antibacterial activity against Pasteurella multocida pm0527 after 24 hrs by broth dilution method

Compound | MIC ([1]; pm1980, 24 h) [µg/mL] | MIC ([2]; pm1980, 24 h) [µg/mL] | MIC ([3]; AL435, 24 h) [µg/mL] | MIC ([4]; pm0527, 24 h) [µg/mL] | Ratio [5] | Ratio [6] | MIC ([7]; pm0527, 24 h) [µg/mL] | MIC [1] [µg/mL] | MIC [2] [µg/mL] | MIC [3] [µg/mL] | MIC [4] [µg/mL] | MIC [7] [µg/mL]
CCC[C@@H]1C[C@@H](C(=O)N[C@@H]([C@H]2O[C@H](SC)[C@H](O)[C@@H](O)[C@H]2O)[C@@H](C)O)N(C)C1 [LINCOMYCIN] | 50 (≈ 123 µM) | 100 (≈ 246 µM) | 100 (≈ 246 µM) | 25 (≈ 61.5 µM) | 4 | 1 | 25 (≈ 61.5 µM) | – | – | – | – | –
CCn1cc(C(=O)O)c(=O)c2ccc(C)nc21 [NALIDIXIC ACID] | 12.5 (≈ 53.8 µM) | 25 (≈ 108 µM) | 25 (≈ 108 µM) | 25 (≈ 108 µM) | 1 | 1 | 25 (≈ 108 µM) | – | – | – | – | –
CO[C@@H]1[C@@H](OC(N)=O)[C@@H](O)[C@H](Oc2ccc3c(O)c(NC(=O)c4ccc(O)c(CC=C(C)C)c4)c(=O)oc3c2C)OC1(C)C [NOVOBIOCIN] | 40 (≈ 65.3 µM) | 20 (≈ 32.6 µM) | 40 (≈ 65.3 µM) | 2.5 (≈ 4.08 µM) | 16 | 2 | 40 (≈ 65.3 µM) | – | – | – | – | –
CO[C@H]1/C=C/O[C@@]2(C)Oc3c(C)c(O)c4c(O)c(c(/C=N/N5CCN(C)CC5)c(O)c4c3C2=O)NC(=O)/C(C)=C\C=C\[C@H](C)[C@H](O)[C@@H](C)[C@@H](O)[C@@H](C)[C@H](OC(C)=O)[C@@H]1C [RIFAMPIN] | 0.78 (≈ 0.948 µM) | 0.78 (≈ 0.948 µM) | 50 (≈ 60.8 µM) | 0.1 (≈ 0.122 µM) | 512 | 64 | 0.2 (≈ 0.243 µM) | – | – | – | – | –
Nc1ccc(S(=O)(=O)Nc2nccs2)cc1 [SULFATHIAZOLE] | 2500 (≈ 9790 µM) | 2500 (≈ 9790 µM) | 2500 (≈ 9790 µM) | 625 (≈ 2450 µM) | 4 | 1 | 1250 (≈ 4900 µM) | – | – | – | – | –
COc1cc(Cc2cnc(N)nc2N)cc(OC)c1OC [TRIMETHOPRIM] | 1 (≈ 3.44 µM) | 2 (≈ 6.89 µM) | 8 (≈ 27.6 µM) | 0.25 (≈ 0.861 µM) | 32 | 4 | 0.5 (≈ 1.72 µM) | – | – | – | – | –
CN[C@H](CC(C)C)C(=O)N[C@H]1C(=O)N[C@@H](CC(N)=O)C(=O)N[C@H]2C(=O)N[C@H]3C(=O)N[C@H](C(=O)N[C@H](C(=O)O)c4cc(O)cc(O)c4-c4cc3ccc4O)[C@H](O)c3ccc(c(Cl)c3)Oc3cc2cc(c3O[C@@H]2O[C@H](CO)[C@@H](O)[C@H](O)[C@H]2O[C@H]2C[C@](C)(N)[C@H](O)[C@H](C)O2)Oc2ccc(cc2Cl)[C@H]1O [VANCOMYCIN] | 250 (≈ 173 µM) | 250 (≈ 173 µM) | 1000 (≈ 690 µM) | 125 (≈ 86.3 µM) | 8 | 4 | 250 (≈ 173 µM) | – | – | – | – | –
GENTAMICIN | – | – | – | – | 4 | 0.5 | – | 40 | 40 | 20 | 5 | 20
NEOMYCIN SULFATE | – | – | – | – | 1 | 0.125 | – | 500 | 1000 | 125 | 125 | 125
POLYMYXIN B | – | – | – | – | 4 | 1 | – | 6.25 | 12.5 | 12.5 | 3.12 | 6.25
SPIRAMYCIN | – | – | – | – | 2 | 1 | – | 25 | 25 | 25 | 12.5 | 25
